The structures appear in SMILES notation.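 Test compounds were applied to cells in 96-well plates for 48 hours at 5 doses. GI50 is the concentration that inhibits growth by half.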 Active and inactive are the calls of the source. No stated cut-off is given here; in the data, active = GI50 up to about 1.1 µM and inactive = higher.

Some test systems named below: SNB-75; SK-OV-3; A498; U-251; EKVX; SN12C; SR; OVCAR-5; MOLT-4; SF-268; ACHN; UACC-257; SK-MEL-28; COLO 205; IGROV-1; LOX IMVI; CCRF-CEM; NCI-H226.
Experiment in all cases: NCI-60 cell line screen, 48 h

As to `CCOC(=O)N1CCN(C=S)CC1`, the GI50 in the test with SNB-75, in the test with SK-OV-3, with A498, in the test with U-251, in the test with EKVX and with SN12C was > 100 µM (inactive) each time. In addition, the GI50 in the test on SR, in the test with OVCAR-5, with MOLT-4, with SF-268, in the test with ACHN and in the test on UACC-257 was > 100 µM (inactive) in each case. In addition, the GI50 with SK-MEL-28, in the test on COLO 205, in the test with IGROV-1, in the test on LOX IMVI and in the test on CCRF-CEM was > 100 µM (inactive) throughout.

For `Clc1ncnc2c1ncn2CCCCCCCCCCCCn1cnc2c(Cl)ncnc21`, the GI50 in the test on SK-OV-3 was 16.4 µM (inactive); in the test with A498 it was 12.2 µM (inactive); in the test on U-251, 11.6 µM (inactive); in the test with EKVX, 16.7 µM (inactive); in the test with SN12C, 18.6 µM (inactive); in the test with SR it was 1.06 µM (active). The GI50 with OVCAR-5 is 27.7 µM (inactive); with NCI-H226 it was 11.7 µM (inactive); in the test with MOLT-4, 6.78 µM (inactive); in the test with SF-268 it was 14.3 µM (inactive); with ACHN, 14.5 µM (inactive); with UACC-257, 2.86 µM (inactive). Also, the GI50 is 2.6 µM (inactive) with SK-MEL-28; 15.6 µM (inactive) in the test on COLO 205; 4.69 µM (inactive) in the test on IGROV-1; 1.43 µM (inactive) in the test on LOX IMVI; 1.36 µM (inactive) in the test with CCRF-CEM.

On to `CCOC(=O)/C(=C\c1ccc[nH]1)C(=O)c1ccccc1`, for which the GI50 was 13.9 µM (inactive) with SNB-75; > 100 µM (inactive) in the test with SK-OV-3; > 100 µM (inactive) in the test with U-251; > 100 µM (inactive) in the test with EKVX; > 100 µM (inactive) in the test on SN12C; 25.8 µM (inactive) in the test on SR. Moreover, the GI50 in the test with OVCAR-5 was > 100 µM (inactive); in the test on NCI-H226, > 100 µM (inactive); with MOLT-4, 43.3 µM (inactive); in the test on SF-268, 91 µM (inactive); in the test on ACHN it was > 100 µM (inactive); with UACC-257, > 100 µM (inactive). Further, the GI50 is > 100 µM (inactive) in the test with SK-MEL-28, > 100 µM (inactive) with COLO 205, 91.2 µM (inactive) in the test on LOX IMVI and 58.3 µM (inactive) with CCRF-CEM.

As to `O=S(=O)(c1ccccc1)C1(C2(S(=O)(=O)c3ccccc3)CCN=N2)CCN=N1` (centres undefined), the GI50 with SNB-75, in the test on SK-OV-3, with U-251, in the test on EKVX, in the test with SN12C and with SR was > 100 µM (inactive) throughout. Moreover, the GI50 in the test on OVCAR-5, in the test with NCI-H226, in the test with MOLT-4, with SF-268, in the test on ACHN and in the test on UACC-257 was > 100 µM (inactive) each time. Besides, the GI50 with SK-MEL-28, with COLO 205, with IGROV-1, with LOX IMVI and in the test with CCRF-CEM was > 100 µM (inactive) throughout.

Take `Cn1c(=O)oc2cc(C3CCC(=O)N3Cc3ccc(Cl)cc3)ccc21` (centres undefined): the GI50 in the test with SNB-75 is 47.9 µM (inactive); in the test on SK-OV-3, 93.3 µM (inactive); with U-251, > 100 µM (inactive); in the test on EKVX, > 100 µM (inactive); in the test on SN12C, > 100 µM (inactive); with SR, > 100 µM (inactive). For the same molecule, the GI50 with OVCAR-5, in the test with NCI-H226, in the test with MOLT-4, in the test with SF-268, in the test with ACHN and with UACC-257 was > 100 µM (inactive) throughout. Besides, the GI50 with SK-MEL-28, with COLO 205, with IGROV-1, with LOX IMVI and in the test with CCRF-CEM was > 100 µM (inactive) in each case.

The record behind these values is ChEMBL document CHEMBL1201862, “PubChem BioAssay data set” (2004).
